Each block holds one compound with its values, some of them ahead of it.
Columns and labels:
[1] = test system: GRA (B. subtilis xpt-pbuX guanine riboswitch C74U aptamer domain) (RNA, riboswitch) GGACAUAUAAUCGCGUGGAUAUGGCACGCAAGUUUCUACCGGGCACCGUAAAUGUCCGAUUAUGUCC; assay: X-ray crystallography; settings: cocrystal structure, 1.6 Å
[2] = test system: GRA (B. subtilis xpt-pbuX guanine riboswitch C74U aptamer domain) (RNA, riboswitch) GGACAUAUAAUCGCGUGGAUAUGGCACGCAAGUUUCUACCGGGCACCGUAAAUGUCCGAUUAUGUCC; assay: 2-aminopurine displacement fluorescence competition; settings: 100 mM KCl, 10 mM MgCl2, 50 mM Tris-HCl pH 8.3
[3] = test system: GRA (B. subtilis xpt-pbuX guanine riboswitch C74U aptamer domain) (RNA, riboswitch) GGACAUAUAAUCGCGUGGAUAUGGCACGCAAGUUUCUACCGGGCACCGUAAAUGUCCGAUUAUGUCC; assay: 2-aminopurine fluorescence titration; settings: 100 mM KCl, 10 mM MgCl2; 50 mM Tris-HCl pH 8.3; RNA titrated into 200 nM 2-aminopurine
[4] = 2-aminopurine displaced (KL 140 nM), 243 nM RNA

Compound: Cc1nc(N)nc(N)n1
KD [2, 4]: 110 ± 30 µM

Compound: Nc1nc(N)nc(Cl)n1
binding ([2]; 2-aminopurine displaced, highest concentration tested 120 μM): no

Compound: Nc1nc2[nH]nc(N)n2n1
KD [2, 4]: 370 ± 40 µM

Compound: Nc1ncc2[nH]cnc2n1
KL [3]: 140 nM

Now from value to compound:

binding [1]: yes
Compound: CNc1ncnc2[nH]cnc12

binding constant [2, 4]: 0.014 ± 0.001 mM
Compound: Nc1cc(N)nc(N)n1

KD [2, 4]: 80 ± 20 µM
Compound: Nc1ncnc(N)n1

— publication PMC3119931 (2011)
